Measured values published in patent US5478816A, “Liquid vitamin formulations containing vitamin D esters” (Bristol-Myers Squibb Company, priority 1993, dated 1995).
Where “and” joins values, the source holds several entries; their conditions need not be identical. Equal entries are not always repeated. Where two headings read alike, the source gives them in different places.

Test: Short-term stability of vitamin D3 and vitamin D3 palmitate in liquid vitamin formulations at 40° C. (HPLC assay)
Format: physicochemical
Conditions: 40° C.; for half-life: liquid vitamin formulation, first order fit of 16 weeks data, read-out: Time in Weeks for 50% Degradation (T50)
Description: In addition to the above, the vitamin formulation contains flavorants, stabilizer of vitamins, and about 1.0% polysorbate 80 as surfactant. As appreciated by the skilled artisan, appropriate overages of vitamins are included in order to assure meeting the label claims. The example composition contains 1.86:1 ratio by weight of glycerine to water. The pH is 5.0 which is adjusted by using an appropriate ratio of ascorbic acid to sodium ascorbate.
Vitamin D was analyzed by a HPLC assay as described by Matthew G. Sliva, et al., "Reversed-Phase Liquid Chromatographic Determination of Vitamin D in Infant Formulas and Enteral Nutritionals," J Assoc. Off. Anal. Chem., 75, 566, 1992, except that saponification conditions of 70° C. for 40 minutes were employed.
Stability of vitamins D3 and D3 palmitate were compared in various vitamin formulations containing different amounts of water and glycerin and at different pHs. The other ingredients and method of pH adjustment were as described in Example 1. The results are in Tables 2-5. Each batch number represents a different liquid vitamin formulation. The amount of glycerin varied between 650 and 850 mg/ml, depending upon the amount of water. "Vit" represents vitamin, "Desc." represents description,"Vit D3" represents vitamin D3, and "Vit D3P" or "D3 P" represents vitamin D3 palmitate. Table 1 lists the half-life (T50) values, i.e., time to degrade to 50% of the starting concentration of vitamins D3 and D3 palmitate at 40° C., These T50 values were calculated by fitting the data to first order degradation rate.

SMILES: C=C1CC[C@H](O)C/C1=C/C=C1\CCC[C@]2(C)[C@@H]([C@H](C)CCCC(C)C)CC[C@@H]12 [Vitamin D3, vitamin D3]
- half-life (pH 3.2, pH 3.2, 252 mg/ml water): 220 days
- half-life (pH 3.2, pH 3.2, 390 mg/ml water): 73.5 days
- half-life (pH 4.2, pH 4.2, 252 mg/ml water): 105 days
- half-life (pH 4.2, pH 4.2, 390 mg/ml water): 44.8 days
- half-life (pH 5, pH 5.0, 252 mg/ml water): 117 days
- half-life (pH 5, pH 5.0, 320 mg/ml water): 86.8 days
- half-life (pH 5, pH 5.0, 390 mg/ml water): 40.6 days
- half-life (pH 5, pH 5.0, 435 mg/ml water): 39.9 days
- half-life (pH 5.6, pH 5.6, 252 mg/ml water): 146 days
- half-life (pH 5.6, pH 5.6, 390 mg/ml water): 44.1 days
- Vitamin D content on storage (pH 3.2, 252 mg/ml water, age 0 weeks, Batch #1 (D3), #2 (D3 P)): 787 IU/ml and 789 IU/ml
- Vitamin D content on storage (pH 3.2, 252 mg/ml water, age 1 week, Batch #1 (D3), #2 (D3 P)): 714 IU/ml and 724 IU/ml
- Vitamin D content on storage (pH 3.2, 252 mg/ml water, age 2 weeks, Batch #1 (D3), #2 (D3 P)): 718 IU/ml and 691 IU/ml
- Vitamin D content on storage (pH 3.2, 252 mg/ml water, age 4 weeks, Batch #1 (D3), #2 (D3 P)): 720 IU/ml and 713 IU/ml
- Vitamin D content on storage (pH 3.2, 252 mg/ml water, age 6 weeks, Batch #1 (D3), #2 (D3 P)): 656 IU/ml and 628 IU/ml
- Vitamin D content on storage (pH 3.2, 252 mg/ml water, age 8 weeks, Batch #1 (D3), #2 (D3 P)): 658 IU/ml and 634 IU/ml
- Vitamin D content on storage (pH 3.2, 252 mg/ml water, age 12 weeks, Batch #1 (D3), #2 (D3 P)): 514 IU/ml and 586 IU/ml
- Vitamin D content on storage (pH 3.2, 252 mg/ml water, age 16 weeks, Batch #1 (D3), #2 (D3 P)): 559 IU/ml and 542 IU/ml
- Vitamin D content on storage (pH 3.2, 390 mg/ml water, age 0 weeks, Batch #3 (D3), #4 (D3 P)): 445 IU/ml and 447 IU/ml
- Vitamin D content on storage (pH 3.2, 390 mg/ml water, age 1 week, Batch #3 (D3), #4 (D3 P)): 429 IU/ml
- Vitamin D content on storage (pH 3.2, 390 mg/ml water, age 2 weeks, Batch #3 (D3), #4 (D3 P)): 392 IU/ml and 399 IU/ml
- Vitamin D content on storage (pH 3.2, 390 mg/ml water, age 4 weeks, Batch #3 (D3), #4 (D3 P)): 359 IU/ml and 369 IU/ml
- Vitamin D content on storage (pH 3.2, 390 mg/ml water, age 8 weeks, Batch #3 (D3), #4 (D3 P)): 282 IU/ml and 271 IU/ml
- Vitamin D content on storage (pH 3.2, 390 mg/ml water, age 12 weeks, Batch #3 (D3), #4 (D3 P)): 207 IU/ml and 211 IU/ml
- Vitamin D content on storage (pH 3.2, 390 mg/ml water, age 16 weeks, Batch #3 (D3), #4 (D3 P)): 160 IU/ml and 149 IU/ml
- Vitamin D content on storage (pH 4.2, 252 mg/ml water, age 0 weeks, Batch #5 (D3), #6 (D3 P)): 450 IU/ml
- Vitamin D content on storage (pH 4.2, 252 mg/ml water, age 1 week, Batch #5 (D3), #6 (D3 P)): 440 IU/ml and 445 IU/ml
- Vitamin D content on storage (pH 4.2, 252 mg/ml water, age 2 weeks, Batch #5 (D3), #6 (D3 P)): 422 IU/ml and 425 IU/ml
- Vitamin D content on storage (pH 4.2, 252 mg/ml water, age 4 weeks, Batch #5 (D3), #6 (D3 P)): 364 IU/ml and 371 IU/ml
- Vitamin D content on storage (pH 4.2, 252 mg/ml water, age 8 weeks, Batch #5 (D3), #6 (D3 P)): 331 IU/ml and 315 IU/ml
- Vitamin D content on storage (pH 4.2, 252 mg/ml water, age 12 weeks, Batch #5 (D3), #6 (D3 P)): 255 IU/ml and 267 IU/ml
- Vitamin D content on storage (pH 4.2, 252 mg/ml water, age 16 weeks, Batch #5 (D3), #6 (D3 P)): 198 IU/ml and 224 IU/ml
- Vitamin D content on storage (pH 4.2, 390 mg/ml water, age 0 weeks, Batch #7 (D3), #8 (D3 P)): 451 IU/ml and 448 IU/ml
- Vitamin D content on storage (pH 4.2, 390 mg/ml water, age 1 week, Batch #7 (D3), #8 (D3 P)): 420 IU/ml and 418 IU/ml
- Vitamin D content on storage (pH 4.2, 390 mg/ml water, age 2 weeks, Batch #7 (D3), #8 (D3 P)): 357 IU/ml and 360 IU/ml
- Vitamin D content on storage (pH 4.2, 390 mg/ml water, age 4 weeks, Batch #7 (D3), #8 (D3 P)): 301 IU/ml and 299 IU/ml
- Vitamin D content on storage (pH 4.2, 390 mg/ml water, age 8 weeks, Batch #7 (D3), #8 (D3 P)): 181 IU/ml and 178 IU/ml
- Vitamin D content on storage (pH 4.2, 390 mg/ml water, age 12 weeks, Batch #7 (D3), #8 (D3 P)): 109 IU/ml and 124 IU/ml
- Vitamin D content on storage (pH 4.2, 390 mg/ml water, age 16 weeks, Batch #7 (D3), #8 (D3 P)): 91.7 IU/ml and 76.1 IU/ml
- Vitamin D content on storage (pH 5.0, 252 mg/ml water, age 0 weeks, Batch #9 (D3), #10 (D3 P)): 840 IU/ml and 851 IU/ml
- Vitamin D content on storage (pH 5.0, 252 mg/ml water, age 1 week, Batch #9 (D3), #10 (D3 P)): 791 IU/ml and 793 IU/ml
- Vitamin D content on storage (pH 5.0, 252 mg/ml water, age 4 weeks, Batch #9 (D3), #10 (D3 P)): 720 IU/ml and 700 IU/ml
- Vitamin D content on storage (pH 5.0, 252 mg/ml water, age 8 weeks, Batch #9 (D3), #10 (D3 P)): 583 IU/ml and 590 IU/ml
- Vitamin D content on storage (pH 5.0, 252 mg/ml water, age 12 weeks, Batch #9 (D3), #10 (D3 P)): 478 IU/ml and 482 IU/ml
- Vitamin D content on storage (pH 5.0, 252 mg/ml water, age 16 weeks, Batch #9 (D3), #10 (D3 P)): 460 IU/ml and 430 IU/ml
- Vitamin D content on storage (pH 5.0, 390 mg/ml water (so in the source), age 0 weeks, Batch #11 (D3), #12 (D3 P)): 454 IU/ml and 449 IU/ml
- Vitamin D content on storage (pH 5.0, 390 mg/ml water (so in the source), age 1 week, Batch #11 (D3), #12 (D3 P)): 432 IU/ml and 423 IU/ml
- Vitamin D content on storage (pH 5.0, 390 mg/ml water (so in the source), age 2 weeks, Batch #11 (D3), #12 (D3 P)): 424 IU/ml and 426 IU/ml
- Vitamin D content on storage (pH 5.0, 390 mg/ml water (so in the source), age 4 weeks, Batch #11 (D3), #12 (D3 P)): 377 IU/ml and 371 IU/ml
- Vitamin D content on storage (pH 5.0, 390 mg/ml water (so in the source), age 8 weeks, Batch #11 (D3), #12 (D3 P)): 291 IU/ml and 281 IU/ml
- Vitamin D content on storage (pH 5.0, 390 mg/ml water (so in the source), age 12 weeks, Batch #11 (D3), #12 (D3 P)): 230 IU/ml and 237 IU/ml
- Vitamin D content on storage (pH 5.0, 390 mg/ml water (so in the source), age 16 weeks, Batch #11 (D3), #12 (D3 P)): 196 IU/ml and 182 IU/ml
- Vitamin D content on storage (pH 5.0, 390 mg/ml water, age 0 weeks, Batch #13 (D3), #14 (D3 P)): 453 IU/ml and 452 IU/ml
- Vitamin D content on storage (pH 5.0, 390 mg/ml water, age 1 week, Batch #13 (D3), #14 (D3 P)): 413 IU/ml and 410 IU/ml
- Vitamin D content on storage (pH 5.0, 390 mg/ml water, age 2 weeks, Batch #13 (D3), #14 (D3 P)): 363 IU/ml and 356 IU/ml
- Vitamin D content on storage (pH 5.0, 390 mg/ml water, age 4 weeks, Batch #13 (D3), #14 (D3 P)): 298 IU/ml and 305 IU/ml
- Vitamin D content on storage (pH 5.0, 390 mg/ml water, age 8 weeks, Batch #13 (D3), #14 (D3 P)): 166 IU/ml and 168 IU/ml
- Vitamin D content on storage (pH 5.0, 435 mg/ml water, age 0 weeks, Batch #15 (D3), #16 (D3 P)): 450 IU/ml and 453 IU/ml
- Vitamin D content on storage (pH 5.0, 435 mg/ml water, age 1 week, Batch #15 (D3), #16 (D3 P)): 400 IU/ml and 426 IU/ml
- Vitamin D content on storage (pH 5.0, 435 mg/ml water, age 2 weeks, Batch #15 (D3), #16 (D3 P)): 370 IU/ml
- Vitamin D content on storage (pH 5.0, 435 mg/ml water, age 4 weeks, Batch #15 (D3), #16 (D3 P)): 285 IU/ml and 291 IU/ml
- Vitamin D content on storage (pH 5.0, 435 mg/ml water, age 8 weeks, Batch #15 (D3), #16 (D3 P)): 187 IU/ml
